According to PubChem BioAssay AID588733 (Vanderbilt Specialized Chemistry Center, 2011):
Active and inactive are the calls of the source. No rule for the calls is given here.

Target: Metabotropic glutamate receptor 2 (Rattus norvegicus) (UniProt P31421)
Experiment: rat mGlu2 allosteric modulation, glutamate curve shift, thallium flux, GIRK cells (AID 588733)
Details: glutamate CRC fold shift, at 10 µM, active compounds read high

Chain of Metabotropic glutamate receptor 2 (Rattus norvegicus) (P31421 whole entry, looked up): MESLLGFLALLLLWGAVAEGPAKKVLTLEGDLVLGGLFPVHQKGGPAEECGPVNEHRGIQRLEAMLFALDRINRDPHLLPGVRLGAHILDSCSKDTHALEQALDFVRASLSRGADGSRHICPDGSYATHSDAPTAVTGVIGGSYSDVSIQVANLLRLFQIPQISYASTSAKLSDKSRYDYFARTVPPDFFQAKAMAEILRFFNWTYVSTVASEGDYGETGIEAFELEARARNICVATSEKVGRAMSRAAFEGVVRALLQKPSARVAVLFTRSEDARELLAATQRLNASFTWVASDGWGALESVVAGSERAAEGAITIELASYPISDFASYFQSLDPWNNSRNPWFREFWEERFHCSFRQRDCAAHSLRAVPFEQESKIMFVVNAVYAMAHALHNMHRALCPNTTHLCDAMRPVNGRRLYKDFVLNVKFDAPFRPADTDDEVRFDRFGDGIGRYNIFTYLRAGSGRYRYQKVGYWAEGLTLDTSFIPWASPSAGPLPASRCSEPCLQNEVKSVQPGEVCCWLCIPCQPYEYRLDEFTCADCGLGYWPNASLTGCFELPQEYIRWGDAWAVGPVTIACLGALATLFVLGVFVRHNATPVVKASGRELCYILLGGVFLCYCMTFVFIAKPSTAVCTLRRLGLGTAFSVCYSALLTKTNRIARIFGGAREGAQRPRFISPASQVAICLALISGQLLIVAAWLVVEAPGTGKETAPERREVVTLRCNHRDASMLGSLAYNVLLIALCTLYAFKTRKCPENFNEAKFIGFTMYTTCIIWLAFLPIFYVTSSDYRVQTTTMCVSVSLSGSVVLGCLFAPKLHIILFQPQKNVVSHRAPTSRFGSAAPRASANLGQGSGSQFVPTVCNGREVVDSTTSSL

fold shift	Structure (SMILES)
0.92 (inactive)	CC1(NC(=O)c2ccc(C#Cc3cccc(F)c3)cn2)COC1
1.02 (inactive)	C[C@@H](NC(=O)c1ccc(C#Cc2cccc(F)c2)cn1)C(C)(C)O
